According to patent publication US8053459B1, “Selenolopyrazole derivatives and use thereof as anticancer agents” (China Medical University, priority 2010, dated 2011):

Assays:
[1] = test system: human lung cancer cell lines (NCI-H226); test: MTT cytotoxicity assay, NCI-H226; type: cell-based; conditions: for IC50: Homo sapiens, read-out: IC50 (concentration of 50% proliferation-inhibitory effect) NCI-H226, NCI-H226 cells, 48 h treatment, MTT, mean of three independent experiments; for potency in inhibiting proliferation of NCI-H226 human cancer cell line: summary statement on Table 1
Method: (§1) The human lung cancer cell lines (NCI-H226) and human renal cancer cell lines (A-498) were purchased from the ATCC (Manassas, Va.). The NCI-H226 and A498 cells were cultured in RPMI-1640 and DMEM medium (GIBCO) respectively, supplemented with 10% FBS, penicillin (100 unit/mL)/streptomycin (100 μg/mL) and 1% L-glutamine. All cells were grown in a humidified atmosphere containing 5% CO2 at 37° C. The cytotoxicity was assessed using 3-(4,5-dimethylthiazol-2-yl)-2,5-diphenyltetrazolium bromide (MTT) assay. NCI-H226 and A498 cells were seeded at 1×10^4 cells/well into 96-well plates. After 24 h incubation to allow for cell attachment, cells were treated with test compounds for 48 h. After treatment, cells were washed once with PBS and incubated with 1 mg/ml MTT (Sigma, St. Louis, Mo., USA) for 2 h. Then the formazan precipitate was dissolved in […] DMSO and the absorbance was measured on an ELISA reader at a best wavelength of 570 nm.

[2] = test system: human renal cancer cell lines (A-498); test: MTT cytotoxicity assay, A498; type: cell-based; conditions: for IC50: Homo sapiens, read-out: IC50 (concentration of 50% proliferation-inhibitory effect) A498, A498 cells, 48 h treatment, MTT, mean of three independent experiments; for potency in inhibiting proliferation of A498 human cancer cell line: summary statement on Table 1
Method: as §1

| SMILES | melting point | IC50 [1] | potency in inhibiting proliferation of NCI-H226 human cancer cell line [1] | IC50 [2] | potency in inhibiting proliferation of A498 human cancer cell line [2] |
| --- | --- | --- | --- | --- | --- |
| OCc1ccc(-c2nn(Cc3ccccc3)c3cc[se]c23)o1 [Compound 57, 1-Benzyl-3-(5-hydroxymethyl-2-furyl)selenolo[3,2-c]pyrazole] | 126 to 129 °C | 1.4 µM | significant potency | 0.4 µM | significant potency |
| COC(=O)c1ccc(-c2nn(-c3cccc(Cl)c3)c3cc[se]c23)o1 [Compound 37, 3-(5-Methoxycarbonyl-2-furyl)-1-(3-chlorophenyl)selenolo-[3,2-c]pyrazole] | 107 to 109 °C | > 100 µM | – | > 100 µM | – |
| COC(=O)c1ccc(-c2nn(-c3ccccc3Cl)c3cc[se]c23)o1 [Compound 36, 3-(5-Methoxycarbonyl-2-furyl)-1-(2-chlorophenyl)selenolo-[3,2-c]pyrazole] | 134 to 136 °C | > 100 µM | – | > 100 µM | – |
| COC(=O)c1ccc(-c2nn(-c3ccc(OC)cc3)c3cc[se]c23)o1 [Compound 42, 3-(5-Methoxycarbonyl-2-furyl)-1-(4-methoxyphenyl)selenolo-[3,2-c]pyrazole] | 89 to 92 °C | > 100 µM | – | > 100 µM | – |
| OCc1ccc(-c2nn(Cc3ccccc3)c3[se]ccc23)o1 [Compound 81, 1-Benzyl-3-(5-Hydroxymethyl-2-furyl)selenolo[2,3-c]pyrazole] | 130.2 to 131.3 °C | – | significant potency | 0.14 µM | significant potency |
| O=C(O)CCC(=O)OCc1ccc(-c2nn(Cc3ccccc3)c3cc[se]c23)o1 [Compound 60, Succinic Acid mono-[5-(1-benzyl-selenolo[3,2-c]pyrazol-3-yl)furan-2-yl]methyl ester] | 111 to 114 °C | 2.2 µM | significant potency | 0.8 µM | significant potency |
| COC(=O)c1ccc(-c2nn(-c3ccccc3OC)c3cc[se]c23)o1 [Compound 41, 3-(5-Methoxycarbonyl-2-furyl)-1-(2-methoxyphenyl)selenolo-[3,2-c]pyrazole] | 72 to 76 °C | > 100 µM | – | > 100 µM | – |
| COC(=O)c1ccc(-c2nn(-c3ccc(Cl)cc3)c3cc[se]c23)o1 [Compound 38, 3-(5-Methoxycarbonyl-2-furyl)-1-(4-chlorophenyl)selenolo-[3,2-c]pyrazole] | 146 to 148 °C | > 100 µM | – | > 100 µM | – |
| COC(=O)c1ccc(-c2nn(-c3ccccc3F)c3cc[se]c23)o1 [Compound 39, 3-(5-Methoxycarbonyl-2-furyl)-1-(2-fluorophenyl)selenolo-[3,2-c]pyrazole] | – | > 100 µM | – | > 100 µM | – |
| COC(=O)c1ccc(-c2nn(-c3ccccc3)c3[se]ccc23)o1 [Compound 78, 3-(5-Methoxycarbonyl-2-furyl)-1-phenylselenolo[2,3-c]-pyrazole] | 167 to 169 °C | > 100 µM | – | > 100 µM | – |
| COC(=O)c1ccc(-c2nn(-c3ccc(F)cc3)c3cc[se]c23)o1 [Compound 40, 3-(5-Methoxycarbonyl-2-furyl)-1-(4-fluorophenyl)selenolo-[3,2-c]pyrazole] | – | > 100 µM | – | > 100 µM | – |
| Cc1cccc(-n2nc(-c3ccc(CO)o3)c3[se]ccc32)c1 [Compound 44, 3-(5-Hydroxymethyl-2-furyl)-1-5-methyl-phenylselenolo[3,2-c]pyrazole] | – | 25 µM | significant potency | 1.98 µM | significant potency |
| COC(=O)c1ccc(-c2nn(Cc3ccccc3)c3[se]ccc23)o1 [Compound 79, 1-Benzyl-3-(5-methoxycarbonyl-2-furyl)selenolo[2,3-c]pyrazole] | 121 to 123 °C | > 100 µM | – | > 100 µM | – |

More lines, main results first:

| melting point | SMILES | IC50 [1] | potency in inhibiting proliferation of NCI-H226 human cancer cell line [1] | IC50 [2] | potency in inhibiting proliferation of A498 human cancer cell line [2] |
| --- | --- | --- | --- | --- | --- |
| 158 to 160 °C | OCc1ccc(-c2nn(Cc3ccccc3)c3cc[se]c23)cc1 [Compound 69, 1-Benzyl-3-(p-hydroxymethylphenyl)selenolo[3,2-c]pyrazole] | – | – | – | – |
| 147 to 148 °C | Cc1cc2c([se]1)c(-c1ccc(CO)o1)nn2Cc1ccccc1 [Compound 58, 1-Benzyl-3-(5-hydroxymethyl-2-furyl)-5-methylselenolo[3,2-c]pyrazole] | – | – | – | – |
| 142 to 145 °C | COC(=O)c1ccc(-c2nn(Cc3ccccc3)c3cc(C)[se]c23)o1 [Compound 56, 1-Benzyl-3-(5-methoxycarbonyl-2-furyl)-5-methylselenolo[3,2-c]pyrazole] | – | – | – | – |
| 150 to 153 °C | COC(=O)c1ccc(-c2nn(Cc3ccccc3)c3cc[se]c23)cc1 [Compound 67, 1-Benzyl-3-(p-methoxycarbonylphenyl)selenolo[3,2-c]pyrazole] | – | – | – | – |
| 155 to 157 °C | COC(=O)c1ccc(-c2nn(-c3ccccc3)c3cc(C)[se]c23)o1 [Compound 35, 3-(5-Methoxycarbonyl-2-furyl)-1-phenyl-5-methylselenolo-[3,2-c]pyrazole] | – | – | – | – |
| 178 to 181 °C | OCc1ccc(-c2nn(-c3ccccc3F)c3cc[se]c23)o1 | – | – | – | – |
| 130 to 131 °C | COC(=O)c1ccc(-c2nn(Cc3ccccc3)c3cc[se]c23)o1 [Compound 55, 1-Benzyl-3-(5-methoxycarbonyl-2-furyl)selenolo[3,2-c]-pyrazole] | – | – | – | – |
| 236 to 239 °C | Cc1cc2c([se]1)c(-c1ccc(C(=O)O)o1)nn2-c1ccccc1 [Compound 49, 3-(5-Hydroxycarbonyl-2-furyl)-1-phenyl-5-methylselenolo[3,2-c]pyrazole] | – | – | – | – |
| 243 to 244 °C | O=C(O)c1ccc(-c2nn(Cc3ccccc3)c3cc[se]c23)o1 [Compound 59, 1-Benzyl-3-(5-hydroxycarbonyl-2-furyl)selenolo[3,2-c]pyrazole] | – | – | – | – |
| 165 to 166 °C | COC(=O)c1ccc(-c2nn(-c3ccccc3)c3cc[se]c23)cc1 [Compound 66, 1-Phenyl-3-(p-methoxycarbonylphenyl)selenolo[3,2-c]pyrazole] | – | – | – | – |
| 144 to 147 °C | COC(=O)c1ccc(-c2nn(-c3ccccc3)c3cc[se]c23)o1 [Compound 34, 3-(5-Methoxycarbonyl-2-furyl)-1-phenylselenolo[3,2-c]-pyrazole] | – | – | – | – |
| 234 to 237 °C | O=C(O)c1ccc(-c2nn(-c3ccccc3)c3cc[se]c23)o1 [Compound 48, 3-(5-Hydroxycarbonyl-2-furyl)-1-phenylselenolo[3,2-c]pyrazole] | – | – | – | – |
| 136 to 138 °C | OCc1ccc(-c2nn(-c3ccccc3)c3[se]ccc23)o1 | – | – | – | – |
| 133 to 134 °C | OCc1ccc(-c2nn(-c3ccccc3)c3cc[se]c23)cc1 [Compound 68, 1-Phenyl-3-(p-hydroxymethylphenyl)selenolo[3,2-c]pyrazole] | – | – | – | – |
